Experimental data reported in patent publication US20130053430A1, “MODULATION OF CETP EXPRESSION” (Isis Pharmaceuticals, Inc., priority 2010, published 2013).
Strand notation (5' to 3'): a small letter for the sugar, then the base; units joined by * are phosphorothioate-linked, units joined directly phosphodiester-linked; [ ] holds rarer units or linkages, { } end groups; capitals alone tell only the bases. e = 2'-O-(2-methoxyethyl) (MOE); [5mC] = 5-methylcytosine; d = 2'-deoxy (DNA)

Assays:
[1] = Plasma cholesterol and triglyceride levels in huApoB/huCETP/mLDLr mouse model (Example 7); type: in vivo, mice; settings: huApoB+/−huCETP+/−mLDLr+/− mice (Groups B-E), ASO 25 mg/kg s.c. twice/week
Text: The huApoB^+/−huCETP^+/−mLDLr^+/− mice were divided into five groups of 5-7 mice each. […] The saline-injected group served as the control group to which oligonucleotide-treated groups were compared. […] This group served a negative control for the effects of the antisense oligonucleotides against CETP. The groups are further described in Table 27, and are designated letters A-F, by which they will be referred from henceforth.
HDL and LDL cholesterol were individually measured by HPLC. Triglyceride levels were measured on weeks 0, 3 and 6 with the use of a commercially available triglyceride kit (DCL Triglyceride Reagent; Diagnostic Chemicals Ltd.).

human CETP mRNA [2] = test: Antisense inhibition of human CETP mRNA in SW872 liposarcoma cells (Example 1); type: cell-based; settings: 150 nM antisense oligonucleotide, lipofectin, ~24 hours, relative to untreated control cells
Method: Antisense oligonucleotides targeted to a CETP nucleic acid were tested for their effect on CETP mRNA transcript in vitro. Cultured SW872 liposarcoma cells at a density of 50,000 cells per well in a 24-well plate were transfected using lipofectin reagent with 150 nM antisense oligonucleotide. After approximately 24 hours, RNA was isolated from the cells and CETP mRNA levels were measured by quantitative real-time PCR. A human primer probe set (forward sequence […], designated herein as SEQ ID NO: 38; reverse sequence GGCTCACGCCTTTGCTGTT, designated herein as SEQ ID NO: 39; probe sequence […], designated herein as SEQ ID NO: 40) was used to quantitate CETP mRNA. CETP mRNA transcript levels were adjusted according to total RNA content, as measured by the house-keeping gene, GAPDH mRNA levels. GAPDH was measured using a primer probe set with the sequence as set forth in SEQ ID NOs: 10, 11, 13. Results are presented as percent inhibition of CETP, relative to untreated control cells.
The antisense oligonucleotides in Table 3 are 5-10-5 gapmers, where the gap segment comprises ten 2′-deoxynucleosides and each wing segment comprises five 2′-MOE nucleosides. Each nucleotide in the 5′ wing segment and each nucleotide in the 3′ wing segment has a 2′-MOE modification. The internucleoside linkages throughout each gapmer are phosphorothioate (P═S) linkages. All cytosine residues throughout each gapmer are 5-methylcytosines. ‘Target start site’ indicates the 5′-most nucleotide to which the antisense oligonucleotide is targeted. ‘Target stop site’ indicates the 3′-most nucleotide to which the antisense oligonucleotide is targeted. All the antisense oligonucleotides listed in Table 3 target human CETP mRNA, designated herein as SEQ ID NO: 1 (GENBANK Accession No. M30185.1).

human CETP mRNA [3] = test: Antisense inhibition of human CETP mRNA in primary hepatocytes from huCETP transgenic mice (Example 4); type: cell-based, mouse; settings: cytofectin, ~24 hours
Method: Transgenic mice expressing human CETP, controlled by its natural flanking region, increase expression of this gene in response to hypercholesterolemia (Jiang, X. C. et al., J. Clin. Invest. 1992. 90: 1290-1295). These mice were utilized for the following studies. Antisense oligonucleotides targeted to a CETP nucleic acid and described in Example 1 were tested for their effect on CETP mRNA transcript in vitro. Cultured primary hepatocytes from huCETP transgenic mice, at a density of 17,500 cells per well in a 96-well plate, were transfected using cytofectin reagent with 100 nM or 200 nM antisense oligonucleotide. After approximately 24 hours, RNA was isolated from the cells and CETP mRNA levels were measured by quantitative real-time PCR. CETP mRNA transcript levels were adjusted according to total RNA content, as measured by the house-keeping gene, GAPDH mRNA levels. Results are presented in Table 6 as percent inhibition of CETP, relative to untreated control cells.

Row | Compound | % inhibition (human CETP mRNA [2]) | Percent inhibition of human CETP mRNA (human CETP mRNA [3]; 100 nM) | Percent inhibition of human CETP mRNA (human CETP mRNA [3]; 200 nM) | also measured
1 | O=C(O)c1cccnc1 [Nicotinic acid, nicotinic acid, reference compound] |  |  |  | % HDL/total cholesterol ([1]; Week 0): 23%; HDL cholesterol levels ([1]; Week 0): 45 mg/dL; LDL cholesterol levels ([1]; Week 0): 122 mg/dL; Total cholesterol levels ([1]; Week 0): 195 mg/dL; Triglyceride levels ([1]; Week 0): 134 mg/dL; % HDL/total cholesterol ([1]; Week 3): 34%; HDL cholesterol levels ([1]; Week 3): 57 mg/dL; LDL cholesterol levels ([1]; Week 3): 102 mg/dL; Total cholesterol levels ([1]; Week 3): 169 mg/dL; Triglyceride levels ([1]; Week 3): 108 mg/dL; % HDL/total cholesterol ([1]; Week 6): 39%; HDL cholesterol levels ([1]; Week 6): 65 mg/dL; LDL cholesterol levels ([1]; Week 6): 102 mg/dL; Total cholesterol levels ([1]; Week 6): 170 mg/dL; Triglyceride levels ([1]; Week 6): 138 mg/dL
2 | ISIS 133837: 5-10-5 MOE gapmer TCCACCAGCAGGTGCTCAGG (eT*e[5mC]*e[5mC]*eA*e[5mC]*d[5mC]*dA*dG*d[5mC]*dA*dG*dG*dT*dG*d[5mC]*eT*e[5mC]*eA*eG*eG) | 70% |  |  | 
3 | ISIS 349444: 5-10-5 MOE gapmer TCCTGGCCCCAGAGATTCAC (eT*e[5mC]*e[5mC]*eT*eG*dG*d[5mC]*d[5mC]*d[5mC]*d[5mC]*dA*dG*dA*dG*dA*eT*eT*e[5mC]*eA*e[5mC]) | 20% | 59% | 0% | 
4 | ISIS 349445: 5-10-5 MOE gapmer CAGCAGGGTCTTCCTGGCCC (e[5mC]*eA*eG*e[5mC]*eA*dG*dG*dG*dT*d[5mC]*dT*dT*d[5mC]*d[5mC]*dT*eG*eG*e[5mC]*e[5mC]*e[5mC]) | 6% | 74% | 71% | 
5 | ISIS 349446: 5-10-5 MOE gapmer GGAACATGAGGCTCTTCCGG (eG*eG*eA*eA*e[5mC]*dA*dT*dG*dA*dG*dG*d[5mC]*dT*d[5mC]*dT*eT*e[5mC]*e[5mC]*eG*eG) | 0% | 34% | 36% | 
6 | ISIS 349447: 5-10-5 MOE gapmer TATGTATGTCCGCCCAGCCC (eT*eA*eT*eG*eT*dA*dT*dG*dT*d[5mC]*d[5mC]*dG*d[5mC]*d[5mC]*d[5mC]*eA*eG*e[5mC]*e[5mC]*e[5mC]) | 15% | 57% | 28% | 
7 | ISIS 349448: 5-10-5 MOE gapmer CCGTATATGTATGTCCGCCC (e[5mC]*e[5mC]*eG*eT*eA*dT*dA*dT*dG*dT*dA*dT*dG*dT*d[5mC]*e[5mC]*eG*e[5mC]*e[5mC]*e[5mC]) | 0% | 53% | 40% | 
8 | ISIS 349449: 5-10-5 MOE gapmer CGAGCCGTTCAGCCTGGAGC (e[5mC]*eG*eA*eG*e[5mC]*d[5mC]*dG*dT*dT*d[5mC]*dA*dG*d[5mC]*d[5mC]*dT*eG*eG*eA*eG*e[5mC]) | 28% | 68% | 63% | 
9 | ISIS 349450: 5-10-5 MOE gapmer GCAGTGGTGTGTAAGTGGCC (eG*e[5mC]*eA*eG*eT*dG*dG*dT*dG*dT*dG*dT*dA*dA*dG*eT*eG*eG*e[5mC]*e[5mC]) | 21% | 89% | 59% | 
10 | ISIS 349451: 5-10-5 MOE gapmer GCAGCCAGCATGGTTATCAG (eG*e[5mC]*eA*eG*e[5mC]*d[5mC]*dA*dG*d[5mC]*dA*dT*dG*dG*dT*dT*eA*eT*e[5mC]*eA*eG) | 23% | 42% | 54% | 
11 | ISIS 349452: 5-10-5 MOE gapmer CAGGACTGTGGCAGCCAGCA (e[5mC]*eA*eG*eG*eA*d[5mC]*dT*dG*dT*dG*dG*d[5mC]*dA*dG*d[5mC]*e[5mC]*eA*eG*e[5mC]*eA) | 75% | 60% | 51% | 
12 | ISIS 349453: 5-10-5 MOE gapmer GCATTGCCCAGCAGGGCCAG (eG*e[5mC]*eA*eT*eT*dG*d[5mC]*d[5mC]*d[5mC]*dA*dG*d[5mC]*dA*dG*dG*eG*e[5mC]*e[5mC]*eA*eG) | 45% | 2% | 26% | 
13 | ISIS 349454: 5-10-5 MOE gapmer GTGCCTTTGGAGCAGGCATG (eG*eT*eG*e[5mC]*e[5mC]*dT*dT*dT*dG*dG*dA*dG*d[5mC]*dA*dG*eG*e[5mC]*eA*eT*eG) | 46% | 69% | 68% | 
14 | ISIS 349455: 5-10-5 MOE gapmer CGATGCCTGCCTCGTGCGAG (e[5mC]*eG*eA*eT*eG*d[5mC]*d[5mC]*dT*dG*d[5mC]*d[5mC]*dT*d[5mC]*dG*dT*eG*e[5mC]*eG*eA*eG) | 35% | 25% | 17% | 
15 | ISIS 349456: 5-10-5 MOE gapmer TCGTGGTTCAACACCAGGAG (eT*e[5mC]*eG*eT*eG*dG*dT*dT*d[5mC]*dA*dA*d[5mC]*dA*d[5mC]*d[5mC]*eA*eG*eG*eA*eG) | 68% | 74% | 51% | 
16 | ISIS 349457: 5-10-5 MOE gapmer TCTGGATCACCTTGGCAGTC (eT*e[5mC]*eT*eG*eG*dA*dT*d[5mC]*dA*d[5mC]*d[5mC]*dT*dT*dG*dG*e[5mC]*eA*eG*eT*e[5mC]) | 52% | 42% | 30% | 
17 | ISIS 349458: 5-10-5 MOE gapmer GGTAGCTGGCTCGCTGGAAG (eG*eG*eT*eA*eG*d[5mC]*dT*dG*dG*d[5mC]*dT*d[5mC]*dG*d[5mC]*dT*eG*eG*eA*eA*eG) | 18% | 65% | 32% | 
18 | ISIS 349459: 5-10-5 MOE gapmer CTTCTCGCCCGTGATATCTG (e[5mC]*eT*eT*e[5mC]*eT*d[5mC]*dG*d[5mC]*d[5mC]*d[5mC]*dG*dT*dG*dA*dT*eA*eT*e[5mC]*eT*eG) | 79% | 50% | 63% | 
19 | ISIS 349460: 5-10-5 MOE gapmer GCATCATGGCCTTCTCGCCC (eG*e[5mC]*eA*eT*e[5mC]*dA*dT*dG*dG*d[5mC]*d[5mC]*dT*dT*d[5mC]*dT*e[5mC]*eG*e[5mC]*e[5mC]*e[5mC]) | 80% | 67% | 76% | 
20 | ISIS 349462: 5-10-5 MOE gapmer ATCTGGATGTTGTGCAACCC (eA*eT*e[5mC]*eT*eG*dG*dA*dT*dG*dT*dT*dG*dT*dG*d[5mC]*eA*eA*e[5mC]*e[5mC]*e[5mC]) | 76% | 60% | 76% | 
21 | ISIS 349463: 5-10-5 MOE gapmer CTGCTGGCGATGGACAAGTG (e[5mC]*eT*eG*e[5mC]*eT*dG*dG*d[5mC]*dG*dA*dT*dG*dG*dA*d[5mC]*eA*eA*eG*eT*eG) | 77% | 58% | 62% | 
22 | ISIS 349464: 5-10-5 MOE gapmer CTTCCACCAGCTCCACCTGG (e[5mC]*eT*eT*e[5mC]*e[5mC]*dA*d[5mC]*d[5mC]*dA*dG*d[5mC]*dT*d[5mC]*d[5mC]*dA*e[5mC]*e[5mC]*eT*eG*eG) | 50% | 8% | 56% | 
